Test results reported in PMC11945475, “Nasal Administration of a Nanoemulsion Based on Methyl Ferulate and Eugenol Encapsulated in Chitosan Oleate: Uptake Studies in the Central Nervous System” (Pharmaceutics, 2025).
Like-named read-outs stand apart in the source and are kept apart here.

How the values were obtained:
[1] = for remaining percentage (residual % content) in NE: 672 h; for content in CS-OA NE used for cellular and in vivo studies / loading in NE: CS-OA NE; for final concentration in NE: loaded in CS-OA NE, immediately after preparation, four batches
Protocol: The eugenol and Fer-Me quantification was performed using an HPLC apparatus, coupled with a UV-Vis Variable Wavelength Detector equipped with a deuterium lamp with a wavelength accuracy of ±1 nm (Agilent 1100 Series, model G1314A, Santa Clara, CA, USA). The mobile phase was constituted by a mixture of CH3CN and H2O 38:62 (v/v) acidified with formic acid at pH 3.25, the flow rate was maintained at 1 mL/min, and separations were performed at room temperature on a 150 mm × 4.6 mm, […]. SUPELCOSIL^TM LC-18 endcapped silica column (Supelco®, Merck, Milan, Italy). Eugenol was detected at a wavelength of 210 nm, while Fer-Me was detected at 320 nm. The injection volume was 20 µL for each sample. […] An ANOVA was performed to assess the feasibility of averaging the peak area values across three calibration curves for both the analytes. […] Both standard curve and NE samples were injected after dilution in a mixture of mobile phase and acetate buffer (5 mM); every analysis on each sample was done in triplicate.
The yield of the process was verified by quantifying by HPLC analysis Fer-Me and eugenol loaded into the CS-OA NEs immediately after preparation and after 1, 2, and 4 weeks of storage at 4 °C. […] Fer-Me and eugenol were quantified by the HPLC method into the external aqueous phase, passing through the membrane as permeate.

[2] = test system: RPMI 2650 cells
Protocol: RPMI 2650 cells were used to evaluate in vitro the possible CS-OA NE cytotoxicity as well as Fer-Me and eugenol cell uptake.
RPMI 2650 cells were cultured on 75 cm^2 polystyrene cell culture flasks in Advanced Minimum Essential Medium (A-MEM), which was supplemented with 10% fetal bovine serum (FBS), 2 mM L-glutamine, 100 IU/mL penicillin, and 100 μg/mL streptomycin. The cells were maintained in a humidified atmosphere containing 5% CO2 at 37 °C. Cells were split twice using trypsin-EDTA at 37 °C before being seeded and allowed to grow to approximately 90% confluence for 3-(4,5-dimethylthiazol-2-yl)-2,5-diphenyltetrazolium (MTT) assays and uptake studies. Cell counting was performed using Scepter™ 2.0 handheld automated cell counter (Merck Millipore, Milan, Italy).
RPMI 2650 cells were seeded in a 12-well plate at a density of 8 × 10^4 cells/well containing 2 mL of culture A-MEM. […] The corresponding solution of pure compounds (approximated to 250 µM and 600 µM concentrations of Fer-Me and eugenol, respectively), and raw Fer-Me (corresponding to a 250 µM solution) added directly to the wells as powder, were used as comparison. In particular, 2 mL of diluted CS-OA NE or the corresponding solution of pure compounds was added to the test wells, and the plate was incubated for pre-determined interval times (10, 30, and 60 min) in a humidified 5% CO2 atmosphere at 37 °C. As for raw Fer-Me incubation, 0.1 mg was accurately weighed (analytical balance Sartorius CP 225D), added to each well containing 2 mL of complete A-MEM, and incubated at 37 °C in an orbital shaker for the same pre-determined interval times above indicated. All media were removed at the end of the incubation. […] After thawing, the lysate was centrifuged twice (16,000× g for 10 min) and the supernatant was immediately injected into the HPLC apparatus (20 μL) to quantify Fer-Me and eugenol (see below). The final number of cells was evaluated on untreated wells after their trypsinization and counted using the Scepter^TM 2.0 automated cell counter (Merck Millipore, Milan, Italy). Each reported value represents the mean of three independent incubation experiments expressed as nanomoles of compounds for 10^6 cells. The uptake efficiencies were calculated as the compound amount quantified in cell lysate 10 min after the onset of the incubation compared to the initial compound amount incubated in cell media (%). […]
The quantification of eugenol and Fer-Me was performed by using a modular HPLC system composed of a pump (model LC-40D), DAD detector (model SPD-M40, Shimadzu, Kyoto, Japan), as well as an injection valve with a 20 μL sample loop (model 7725; Rheodyne, IDEX, Torrance, CA, USA). […]

[3] = In vitro drug release from CS-OA NE (dialysis tubing); type: physicochemical; conditions: PBS pH 6.2, 32 °C
Protocol: The membrane was immersed in 50 mL of PBS (pH 6.2) at 32 ± 2 °C. The release medium was kept under constant magnetic stirring. Aliquots (1 mL) were withdrawn at predetermined intervals ranging from 15 min to 4 h and replaced with an equal volume of fresh PBS. The Fer-Me and eugenol released were quantified using the HPLC method.

[4] = Encapsulation efficiency (ultrafiltration method, HPLC); type: physicochemical; conditions: CS-OA NE, ultrafiltration 50K MWCO
Protocol: EE% was calculated by Equation (2):(2) EE%= total drug amount in CS-OA NE - drug amount in external phase/total drug amount in CS-OA NE × 100

Structure (SMILES) | remaining percentage (residual % content) in NE [1] | content in CS-OA NE used for cellular and in vivo studies [1] | loading in NE [1] | final concentration in NE [1] | uptake efficiency at 10 min [2] | in vitro release from CS-OA NE ([3]; 30 min) | in vitro release from CS-OA NE ([3]; 240 min) | EE% (encapsulation efficiency) [4] | intracellular amount ([2]; human, 10 min, 600 µM) | uptake efficiency at 10 min ([2]; human, 10 min, 600 µM) | intracellular amount ([2]; human, 60 min, 600 µM)
COC(=O)/C=C/c1ccc(O)c(OC)c1 [Fer-Me, methyl ferulate] | about 81% | about 5 mM | about 1 mg/mL | 123.0 ± 0.2 µg per 100 µL of NE | 0.80 ± 0.12% | 24.9% | 96.9% | 90.2% | – | – | –
C=CCc1ccc(O)c(OC)c1 [eugenol] | about 71% | ~12 mM | ~2 mg/mL | 260.0 ± 0.5 µg per 100 µL of NE | – | 25.2% | 97.5% | 87.9% | 60.80 ± 5.09 nmol/10^6 cells | 0.77 ± 0.10% | 57.41 ± 2.80 nmol/10^6 cells
